Molecular target: T1, S. aureus NAL (Staphylococcus aureus, UniProt Q2G160)
T1 construct: gene nanA; crystal structure
Test: X-ray crystal structure of the complex
Assay type: binding
Details: covalent; Z-configured enamine observed in the active site

T1 sequence (Q2G160 whole entry): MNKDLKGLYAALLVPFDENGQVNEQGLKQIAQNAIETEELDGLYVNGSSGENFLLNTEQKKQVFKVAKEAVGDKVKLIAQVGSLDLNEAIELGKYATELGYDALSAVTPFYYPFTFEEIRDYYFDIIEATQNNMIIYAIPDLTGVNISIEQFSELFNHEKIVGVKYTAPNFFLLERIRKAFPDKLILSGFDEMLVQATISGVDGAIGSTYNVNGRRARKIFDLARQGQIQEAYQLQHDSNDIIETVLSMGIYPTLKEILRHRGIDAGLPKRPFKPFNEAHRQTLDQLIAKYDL

Compound: O=C(O)C(=O)CF [fluoropyruvate]
- X-ray crystal structure of the complex: the crystal structure of S. aureus NAL was determined in complex with fluoropyruvate
